In ChEMBL document CHEMBL4351025, “Indole-nitroimidazole conjugates as efficient manipulators to decrease the genes expression of methicillin-resistant Staphylococcus aureus” (Eur J Med Chem, 2019):
Values after ≈ are worked out from the molar mass of the structure shown. Active and inactive are the calls of the source. The calls are words filed in the database; no cut-off is given here.

Key:
Staphylococcus aureus [1] = test: Antibacterial activity against methicillin-resistant Staphylococcus aureus N315 incubated for 24 hrs by two fold serial dilution method; type: functional; conditions: N315, 24 h
Enterococcus faecalis [2] = test: Antibacterial activity against Enterococcus faecalis incubated for 24 hrs by two fold serial dilution method; type: functional
Staphylococcus aureus [3] = test: Antibacterial activity against Staphylococcus aureus ATCC 29213 incubated for 24 hrs by two fold serial dilution method; type: functional; conditions: ATCC 29213, 24 h
Klebsiella pneumoniae = test: Antibacterial activity against Klebsiella pneumoniae incubated for 24 hrs by two fold serial dilution method; type: functional
Escherichia coli = test: Antibacterial activity against Escherichia coli incubated for 24 hrs by two fold serial dilution method; type: functional
Pseudomonas aeruginosa = test: Antibacterial activity against Pseudomonas aeruginosa incubated for 24 hrs by two fold serial dilution method; type: functional
Acinetobacter baumannii = test: Antibacterial activity against Acinetobacter baumannii incubated for 24 hrs by two fold serial dilution method; type: functional
[4] = Cytotoxicity activity against human A549 cells assessed as cell viability at 2 to 64 ug/ml incubated for 24 hrs by MTT assay relative to control; type: cell-based; conditions: read-out: Activity
Albumin [5] = target: T1, Albumin (Homo sapiens, UniProt P02768); test: Binding affinity to HSA assessed as quenching constant at 290 K by spectrofluorimetric analysis; type: ADME; conditions: isolated protein
T1 sequence (P02768 whole entry): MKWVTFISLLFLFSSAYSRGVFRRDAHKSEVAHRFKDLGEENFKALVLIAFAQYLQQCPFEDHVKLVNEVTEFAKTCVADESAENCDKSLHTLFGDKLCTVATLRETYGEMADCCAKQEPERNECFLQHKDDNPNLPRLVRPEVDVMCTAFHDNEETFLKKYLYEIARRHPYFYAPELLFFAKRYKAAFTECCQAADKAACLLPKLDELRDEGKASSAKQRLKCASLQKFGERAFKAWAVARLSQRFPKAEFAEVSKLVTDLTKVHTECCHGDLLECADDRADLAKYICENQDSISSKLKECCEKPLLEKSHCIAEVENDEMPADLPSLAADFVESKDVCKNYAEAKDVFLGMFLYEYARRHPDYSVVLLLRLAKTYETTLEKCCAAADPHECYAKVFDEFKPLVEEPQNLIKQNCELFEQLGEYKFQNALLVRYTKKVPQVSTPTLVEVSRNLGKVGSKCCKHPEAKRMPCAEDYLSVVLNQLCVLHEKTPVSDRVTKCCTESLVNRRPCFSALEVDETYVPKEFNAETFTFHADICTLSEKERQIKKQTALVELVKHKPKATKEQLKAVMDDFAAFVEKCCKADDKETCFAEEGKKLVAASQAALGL

Albumin [6] = target: T1, Albumin; test: Binding affinity to HSA assessed as quenching constant at 300 K by spectrofluorimetric analysis; type: ADME; conditions: isolated protein
Staphylococcus aureus [7] = test: Antibacterial activity against methicillin-resistant Staphylococcus aureus N315 at 0.5 times MIC measured over 6 passages; type: functional, organism-based
DNA [8] = test: Binding affinity to methicillin-resistant Staphylococcus aureus N315 DNA assessed as hyperchromic effect by neutral red dye based UV-visible spectrophotometric method; type: nucleic-acid assay; conditions: Staphylococcus aureus subsp. aureus N315
DNA [9] = test: Binding affinity to methicillin-resistant Staphylococcus aureus DNA assessed as reduction in neutral red binding to DNA by UV-visible spectrophotometric method; type: nucleic-acid assay
Staphylococcus aureus [10] = test: Induction of membrane permeabilization in methicillin-resistant Staphylococcus aureus N315 assessed as increase in fluorescence intensity at 12 times MIC measured within 70 mins by propidium iodide staining based fluorescence assay; type: functional, organism-based
Staphylococcus aureus [11] = test: Antibacterial activity against methicillin-resistant Staphylococcus aureus N315 assessed as reduction in MecA gene expression incubated for 3 hrs by qRT-PCR analysis; type: functional, organism-based
Staphylococcus aureus [12] = test: Antibacterial activity against methicillin-resistant Staphylococcus aureus N315 assessed as reduction in FemB gene expression incubated for 3 hrs by qRT-PCR analysis; type: functional, organism-based
Staphylococcus aureus [13] = test: Antibacterial activity against methicillin-resistant Staphylococcus aureus N315 assessed as reduction in GyrB gene expression incubated for 3 hrs by qRT-PCR analysis; type: functional, organism-based
Albumin [14] = target: T1, Albumin; test: Binding affinity to HSA assessed as Stem-Volmer quenching constant at 290 K by spectrofluorimetric analysis; type: ADME; conditions: isolated protein
Albumin [15] = target: T1, Albumin; test: Binding affinity to HSA assessed as Stem-Volmer quenching constant at 300 K by spectrofluorimetric analysis; type: ADME; conditions: isolated protein
Albumin [16] = target: T1, Albumin; test: Binding affinity to HSA assessed as Stem-Volmer quenching constant at 313 K by spectrofluorimetric analysis; type: ADME; conditions: isolated protein
Albumin [17] = target: T1, Albumin; test: Binding affinity to HSA assessed as quenching constant at 313 K by spectrofluorimetric analysis; type: ADME; conditions: isolated protein
Albumin [18] = target: T1, Albumin; test: Binding affinity to HSA assessed as effective quenching constant at 290 K by spectrofluorimetric based Stern-Volmer method; type: ADME; conditions: isolated protein
Albumin [19] = target: T1, Albumin; test: Binding affinity to HSA assessed as effective quenching constant at 300 K by spectrofluorimetric based Stern-Volmer method; type: ADME; conditions: isolated protein
Albumin [20] = target: T1, Albumin; test: Binding affinity to HSA assessed as effective quenching constant at 313 K by spectrofluorimetric based Stern-Volmer method; type: ADME; conditions: isolated protein
Albumin [21] = target: T1, Albumin; test: Binding affinity to HSA assessed as binding constant at 290 K by spectrofluorimetric based Scatchard method; type: ADME; conditions: isolated protein
Albumin [22] = target: T1, Albumin; test: Binding affinity to HSA assessed as binding constant at 300 K by spectrofluorimetric based Scatchard method; type: ADME; conditions: isolated protein
Albumin [23] = target: T1, Albumin; test: Binding affinity to HSA assessed as binding constant at 313 K by spectrofluorimetric based Scatchard method; type: ADME; conditions: isolated protein
Albumin [24] = target: T1, Albumin; test: Binding affinity to HSA assessed as binding constant at 298K by spectrofluorimetric based Scatchard method; type: ADME; conditions: isolated protein
Albumin [25] = target: T1, Albumin; test: Binding affinity to HSA assessed as binding constant at 298K in presence of Mg2+ ion by spectrofluorimetric based Scatchard method; type: ADME; conditions: isolated protein
Albumin [26] = target: T1, Albumin; test: Binding affinity to HSA assessed as binding constant at 298K in presence of Ca2+ ion by spectrofluorimetric based Scatchard method; type: ADME; conditions: isolated protein
Albumin [27] = target: T1, Albumin; test: Ratio of binding affinity for HSA assessed as binding constant at 298K in presence of Mg2+ ion to binding affinity to HSA at 298K by spectrofluorimetric based Scatchard method; type: ADME; conditions: isolated protein
Albumin [28] = target: T1, Albumin; test: Ratio of binding affinity for HSA assessed as binding constant at 298K in presence of Ca2+ ion to binding affinity to HSA at 298K by spectrofluorimetric based Scatchard method; type: ADME; conditions: isolated protein
[29] = Cytotoxicity activity against human BEAS2B cells assessed as cell viability at 64 ug/ml incubated for 24 hrs by MTT assay relative to control; type: cell-based; conditions: BEAS-2B cells, read-out: Activity
DNA [30] = test: Binding affinity to methicillin-resistant Staphylococcus aureus N315 DNA by neutral red dye based UV-visible spectrophotometric method; type: nucleic-acid assay; conditions: Staphylococcus aureus subsp. aureus N315
Enterococcus faecalis [31] = test: Potency index, ratio of MIC for norfloxacin to test compound MIC for antibacterial activity against Enterococcus faecalis; type: functional

CC(=O)Cn1cc(/C=C(/C(C)=O)n2cc([N+](=O)[O-])nc2C)c2ccccc21
MIC (Staphylococcus aureus [1]): 0.5 µg/mL (≈ 1.36 µM)
MIC (Enterococcus faecalis [2]): 16 µg/mL (≈ 43.7 µM)
MIC (Staphylococcus aureus [3]): 256 µg/mL (≈ 699 µM)
MIC (Klebsiella pneumoniae): 2 µg/mL (≈ 5.46 µM)
MIC (Escherichia coli): 8 µg/mL (≈ 21.8 µM)
MIC (Pseudomonas aeruginosa): 512 µg/mL (≈ 1400 µM)
MIC (Acinetobacter baumannii): 128 µg/mL (≈ 349 µM)

CCn1cc(C(=O)O)c(=O)c2cc(F)c(N3CCNCC3)cc21 [NORFLOXACIN]
MIC (Staphylococcus aureus [1]): 8 µg/mL (≈ 25.1 µM)
MIC (Enterococcus faecalis [2]): 4 µg/mL (≈ 12.5 µM)
MIC (Staphylococcus aureus [3]): 2 µg/mL (≈ 6.26 µM)
MIC (Klebsiella pneumoniae): 4 µg/mL (≈ 12.5 µM)
MIC (Escherichia coli): 16 µg/mL (≈ 50.1 µM)
MIC (Pseudomonas aeruginosa): 2 µg/mL (≈ 6.26 µM)
MIC (Acinetobacter baumannii): 8 µg/mL (≈ 25.1 µM)

COc1cccc2c1C(=O)c1c(O)c3c(c(O)c1C2=O)C[C@@](O)(C(=O)CO)C[C@@H]3O[C@H]1C[C@H](N)[C@H](O)[C@H](C)O1 [DOXORUBICIN]
viability at 24 h [4]: < 75%

CC(=O)/C(=C/c1cn(CC(=O)N2CCCCC2)c2ccccc12)n1cc([N+](=O)[O-])nc1C
Kq (Albumin [5]): 1.27 ×10¹³ L/mol/s
Kq (Albumin [6]): 1.19 ×10¹³ L/mol/s
MIC (Staphylococcus aureus [1]): 1 µg/mL (≈ 2.3 µM)
MIC (Enterococcus faecalis [2]): 32 µg/mL (≈ 73.5 µM)
MIC (Staphylococcus aureus [3]): 128 µg/mL (≈ 294 µM)
MIC (Klebsiella pneumoniae): 8 µg/mL (≈ 18.4 µM)
MIC (Escherichia coli): 1 µg/mL (≈ 2.3 µM)
MIC (Pseudomonas aeruginosa): 128 µg/mL (≈ 294 µM)
MIC (Acinetobacter baumannii): 128 µg/mL (≈ 294 µM)
Activity (Staphylococcus aureus [7]): Active
Activity (DNA [8]): Active
Activity (DNA [9]): Active
Activity (Staphylococcus aureus [10]): Active
Activity (Staphylococcus aureus [11]): Active
Activity (Staphylococcus aureus [12]): Active
Activity (Staphylococcus aureus [13]): Active
KSV (Albumin [14]): 8.14 ×10⁴ L/mol
KSV (Albumin [15]): 7.63 ×10⁴ L/mol
KSV (Albumin [16]): 6.35 ×10⁴ L/mol
Kq (Albumin [17]): 0.99 ×10¹³ L/mol/s
Kq (Albumin [18]): 132000 M⁻¹
Kq (Albumin [19]): 79800 M⁻¹
Kq (Albumin [20]): 56900 M⁻¹
Kb (Albumin [21]): 5.88 ×10⁴ L/mol
Kb (Albumin [22]): 5.73 ×10⁴ L/mol
Kb (Albumin [23]): 4.95 ×10⁴ L/mol
Kb (Albumin [24]): 4.624 ×10⁴ L/mol
Kb (Albumin [25]): 4.766 ×10⁴ L/mol
Kb (Albumin [26]): 5.729 ×10⁴ L/mol
Ratio (Albumin [27]): 103%
Ratio (Albumin [28]): 124%
viability at 24 h [4]: > 75%
viability at 24 h, 64 ug/ml [29]: 74%
Activity (DNA [30]): Dose-dependent effect
K (DNA [30]): 3.45 ×10⁵ L/mol

CC(=O)/C(=C/c1cn(CC(=O)N2CCN(Cc3ccc(F)cc3)CC2)c2cc(Cl)ccc12)n1cc([N+](=O)[O-])nc1C
MIC (Staphylococcus aureus [1]): 512 µg/mL (≈ 884 µM)
MIC (Enterococcus faecalis [2]): 2 µg/mL (≈ 3.45 µM)
MIC (Staphylococcus aureus [3]): 512 µg/mL (≈ 884 µM)
MIC (Klebsiella pneumoniae): 512 µg/mL (≈ 884 µM)
MIC (Escherichia coli): 512 µg/mL (≈ 884 µM)
MIC (Pseudomonas aeruginosa): 128 µg/mL (≈ 221 µM)
MIC (Acinetobacter baumannii): 512 µg/mL (≈ 884 µM)

CC(=O)/C(=C/c1cn(CC(=O)N2CCN(Cc3ccc(F)cc3)CC2)c2ccccc12)n1cc([N+](=O)[O-])nc1C
MIC (Staphylococcus aureus [1]): 32 µg/mL (≈ 58.8 µM)
MIC (Enterococcus faecalis [2]): 2 µg/mL (≈ 3.67 µM)
MIC (Staphylococcus aureus [3]): 8 µg/mL (≈ 14.7 µM)
MIC (Klebsiella pneumoniae): 16 µg/mL (≈ 29.4 µM)
MIC (Escherichia coli): 16 µg/mL (≈ 29.4 µM)
MIC (Pseudomonas aeruginosa): 32 µg/mL (≈ 58.8 µM)
MIC (Acinetobacter baumannii): 32 µg/mL (≈ 58.8 µM)
Ratio (Enterococcus faecalis [31]): 2

CC(=O)/C(=C/c1cn(CC(=O)N2CCN(Cc3ccc(Cl)cc3Cl)CC2)c2ccccc12)n1cc([N+](=O)[O-])nc1C
MIC (Staphylococcus aureus [1]): 64 µg/mL (≈ 107 µM)
MIC (Enterococcus faecalis [2]): 128 µg/mL (≈ 215 µM)
MIC (Staphylococcus aureus [3]): 256 µg/mL (≈ 430 µM)
MIC (Klebsiella pneumoniae): 128 µg/mL (≈ 215 µM)
MIC (Escherichia coli): 512 µg/mL (≈ 860 µM)
MIC (Pseudomonas aeruginosa): 256 µg/mL (≈ 430 µM)
MIC (Acinetobacter baumannii): 256 µg/mL (≈ 430 µM)

C#CCn1cc(/C=C(/C(C)=O)n2cc([N+](=O)[O-])nc2C)c2ccccc21
MIC (Staphylococcus aureus [1]): 2 µg/mL (≈ 5.74 µM)
MIC (Enterococcus faecalis [2]): 32 µg/mL (≈ 91.9 µM)
MIC (Staphylococcus aureus [3]): 128 µg/mL (≈ 367 µM)
MIC (Klebsiella pneumoniae): 128 µg/mL (≈ 367 µM)
MIC (Escherichia coli): 512 µg/mL (≈ 1470 µM)
MIC (Pseudomonas aeruginosa): 128 µg/mL (≈ 367 µM)
MIC (Acinetobacter baumannii): 128 µg/mL (≈ 367 µM)

C=CCn1cc(/C=C(/C(C)=O)n2cc([N+](=O)[O-])nc2C)c2ccccc21
MIC (Staphylococcus aureus [1]): 32 µg/mL (≈ 91.3 µM)
MIC (Enterococcus faecalis [2]): 64 µg/mL (≈ 183 µM)
MIC (Staphylococcus aureus [3]): 4 µg/mL (≈ 11.4 µM)
MIC (Klebsiella pneumoniae): 32 µg/mL (≈ 91.3 µM)
MIC (Escherichia coli): 32 µg/mL (≈ 91.3 µM)
MIC (Pseudomonas aeruginosa): 16 µg/mL (≈ 45.7 µM)
MIC (Acinetobacter baumannii): 16 µg/mL (≈ 45.7 µM)

NC1CCN(c2c(F)cc3c(=O)c(C(=O)O)cn(C4CC4)c3c2Cl)C1 (stereo not given) [CLINAFLOXACIN]
MIC (Staphylococcus aureus [1]): 16 µg/mL (≈ 43.7 µM)
MIC (Enterococcus faecalis [2]): 2 µg/mL (≈ 5.47 µM)
MIC (Staphylococcus aureus [3]): 0.5 µg/mL (≈ 1.37 µM)
MIC (Klebsiella pneumoniae): 32 µg/mL (≈ 87.5 µM)
MIC (Escherichia coli): 64 µg/mL (≈ 175 µM)
MIC (Pseudomonas aeruginosa): 32 µg/mL (≈ 87.5 µM)
MIC (Acinetobacter baumannii): 16 µg/mL (≈ 43.7 µM)

CC(=O)/C(=C/c1cn(CC(=O)N2CCN(Cc3ccc(F)cc3)CC2)c2cc(C)ccc12)n1cc([N+](=O)[O-])nc1C
MIC (Staphylococcus aureus [1]): 2 µg/mL (≈ 3.58 µM)
MIC (Enterococcus faecalis [2]): 64 µg/mL (≈ 115 µM)
MIC (Staphylococcus aureus [3]): 512 µg/mL (≈ 917 µM)
MIC (Klebsiella pneumoniae): 512 µg/mL (≈ 917 µM)
MIC (Escherichia coli): 512 µg/mL (≈ 917 µM)
MIC (Pseudomonas aeruginosa): 128 µg/mL (≈ 229 µM)
MIC (Acinetobacter baumannii): 512 µg/mL (≈ 917 µM)
